Measurements reported in patent US5585259A, “Ecotin as a factor Xa, XIa, and XIIa inhibitor” (Corvas International, Inc., priority 1993, dated 1996).

Columns and labels:
rat mast cell chymase = conditions: cited from earlier work
[1] = system: chymotrypsin-like (protease I) esterase; conditions: cited from earlier work
[2] = system: three membrane-associated serine proteases; conditions: cited from earlier work
chymotrypsin = assay: Protease assay; assay type: biochemical; conditions: read-out: Inhibition constant
Description: Protease activity was determined using commercially available chromogenic substrates and purified proteases. The initial rate was determined with a Thermomax (Molecular Devices) microtiterplate reader at 405 nm wavelength at room temperature. The buffer used for all measurements contained 100 mM TRIS, 140 mM NaCl, 0.1% BSA, pH 7.4.
(§1) vi /vo ={([Et ]-[It ]-Ki *)+[([It ]+i
(§2) *-[Et ])^2 +4Ki *[Et ]]^ 1/2 }/2[Et ]
(§3) vi and vo are the initial rates measured in presence and in absence of inhibitor, [It ] and [Et ] are the total inhibitor and enzyme concentrations and Ki * is the apparent inhibition constant. It was assumed that under these conditions the apparent inhibition constant is not dependent on the substrate concentration and corresponds to the binding constant of the inhibitor to the active site of the protease in the conditions of the experiment.

human serosal urokinase = conditions: cited from earlier work
pancreatic elastase = conditions: cited from earlier work
trypsin = conditions: cited from earlier work
thrombin = assay: Protease assay, chromogenic substrate; assay type: biochemical; conditions: 30 minutes preincubation, read-out: Inhibition constant
Description: (§4) Protease activity was determined using commercially available chromogenic substrates and purified proteases. The initial rate was determined with a Thermomax (Molecular Devices) microtiterplate reader at 405 nm wavelength at room temperature. The buffer used for all measurements contained 100 mM TRIS, 140 mM NaCl, 0.1% BSA, pH 7.4. […]
To determine inhibition constants, the protease was incubated during 90 minutes (factor Xa), 45 minutes (trypsin), or 30 minutes (thrombin, plasmin, factor VIIa-tissue factor, human plasma kallikrein, porcine pancreatic elastase, factor XIa, factor XIIa, activated protein C, recombinant t-PA and urokinase) in 150 μl before the substrate (50 μl) was added. The inhibition constant was determined from a plot of the relative activity versus the inhibitor concentration fitted with the following equation: […]
except for thrombin where the total enzyme concentration can be neglected compared to the inhibitor concentration and the equation is reduced to:
vi /vo =1/(1+[It ]/Ki *).
vi and vo are the initial rates measured in presence and in absence of inhibitor, [It ] and [Et ] are the total inhibitor and enzyme concentrations and Ki * is the apparent inhibition constant. […]

papain = conditions: cited from earlier work
elastase = conditions: cited from earlier work
[3] = system: trypsin-like (protease II) esterase; conditions: cited from earlier work
plasmin = assay: Protease assay, chromogenic substrate; assay type: biochemical
Description: as §4
(§5) To determine inhibition constants, the protease was incubated during 90 minutes (factor Xa), 45 minutes (trypsin), or 30 minutes (thrombin, plasmin, factor VIIa-tissue factor, human plasma kallikrein, porcine pancreatic elastase, factor XIa, factor XIIa, activated protein C, recombinant t-PA and urokinase) in 150 μl before the substrate (50 μl) was added. The inhibition constant was determined from a plot of the relative activity versus the inhibitor concentration fitted with the following equation:
as §1, §2, §3

rt-PA = assay: Protease assay, chromogenic substrate; assay type: biochemical; conditions: 30 minutes preincubation, read-out: Inhibition constant
Description: as §4, §5, §1, §2, §3

factor XIIA = assay: Protease assay, chromogenic substrate; assay type: biochemical; conditions: 30 minutes preincubation, read-out: Inhibition constant
Description: as §4, §5, §1, §2, §3

activated protein C = assay: Protease assay, chromogenic substrate; assay type: biochemical; conditions: 30 minutes preincubation, read-out: Inhibition constant
Description: as §4, §5, §1, §2, §3

factor Xa = assay: Protease assay, chromogenic substrate; assay type: biochemical; conditions: 90 minutes preincubation, read-out: Inhibition constant
Description: as §4, §5, §1, §2, §3

factor XIa = assay: Protease assay, chromogenic substrate; assay type: biochemical; conditions: 30 minutes preincubation, read-out: Inhibition constant
Description: as §4, §5, §1, §2, §3

[4] = system: factor VIIa-tissue factor complex; assay: Protease assay, chromogenic substrate; assay type: biochemical; conditions: concentrations up to 1 μM
Description: as §4, §5, §1, §2, §3

human plasma kallikrein = assay: Protease assay, chromogenic substrate; assay type: biochemical; conditions: 30 minutes preincubation, read-out: Inhibition constant
Description: as §4, §5, §1, §2, §3

urokinase = assay: Protease assay, chromogenic substrate; assay type: biochemical; conditions: 30 minutes preincubation, read-out: Inhibition constant
Description: as §4, §5, §1, §2, §3

[5] = system: eight soluble endoproteases which are isolated from E. coli (Do, Re, Mi, Fa, So, La, Ci, Pi); conditions: cited from earlier work
[6] = system: Staphylococcus aureus V8 protease; conditions: cited from earlier work
thermolysin = conditions: cited from earlier work
subtilisin = conditions: cited from earlier work
kallikrein = conditions: cited from earlier work
human pulmonary tryptase = conditions: cited from earlier work
pepsin = conditions: cited from earlier work
[7] = system: occlusive thrombus formation in rat carotid artery; assay: Rat model of FeCl3-induced platelet-dependent arterial thrombosis; assay type: in vivo; conditions: 10 μg/kg/min continuous intravenous infusion
Text: The rat model is a well characterized model of platelet dependent, arterial thrombosis which has been used in the evaluation potential antithrombotic compounds such as direct thrombin inhibitors. Kurz et al., 60 Thromb. Res. 269, 1990. […] In this model a platelet-rich, occlusive thrombus is formed in a segment of the rat carotid artery treated with a fresh solution of FeCl3 absorbed to a piece of filter paper. The FeCl3 is thought to diffuse into the treated segment of artery and causes de-endothelialization resulting in thrombus formation. The effect of a test compound on the incidence of occlusive thrombus formation following the application of the FeCl3 is monitored by ultrasonic flowtometry, and is used as the primary end point. The use of flowtometry is a modification of the original procedure in which thermal detection of clot formation was employed. Kurz et al., supra.
Male Harlan Sprague Dawley rats (420-450 g) were acclimated at least 72 hours prior to use and fasted for 12 hours prior to surgery with free access to water. The animals were prepared, anesthetized with Nembutal with catheters for blood pressure monitoring, drug and anesthesia delivery being implanted as described above. The left carotid artery was isolated by making a midline cervical incision followed by blunt dissection and spreading techniques to separate a 2 cm segment of the vessel from the carotid sheath. A silk suture was inserted under the proximal and distal ends of the isolated vessel to provide clearance for the placement of an ultrasonic flow probe (Transonic) around the proximal end of the vessel. […]
Following surgery, the animals were randomized in either a control (saline infusion) or treatment group with test compound (Ecotin) with at least 4 animals per group at the indicated dose. […] Blood pressure, blood flow, heart rate, and respiration were monitored for 60 minutes.
The incidence of occlusion (defined as the attainment of zero blood flow) was recorded as the primary end point. […] The segment was re-weighed following removal of the clot and the difference recorded as total % clot weight. […]

## Ecotin: endogenous E. coli periplasmic serine protease (trypsin) inhibitor protein; recombinant form from pMa5-CI, molecular mass 16,098 Daltons
Rat mast cell chymase
  inhibition of rat mast cell chymase: potent inhibitor
[1]
  inhibition of chymotrypsin-like (protease I) esterase in E. coli: does not inhibit
[2]
  inhibition of three membrane-associated serine proteases: insensitive to inhibition
chymotrypsin
  Ki: < 2.5 nM
Human serosal urokinase
  inhibition of human serosal urokinase: potent inhibitor
Pancreatic elastase
  inhibition of pancreatic elastase: potent inhibitor
trypsin
  inhibition of trypsin: able to inhibit
thrombin
  Ki: 7.2 µM
papain
  inhibition of papain: does not inhibit
elastase
  inhibition of elastase: able to inhibit
[3]
  inhibition of trypsin-like (protease II) esterase in E. coli: does not inhibit
plasmin; 1 μM recombinant Ecotin
  Plasmin inhibition: 15%
plasmin; plasmin, 30 minutes preincubation
  Inhibition constant: inactive
rt-PA
  Ki: > 2500 nM
Factor XIIA
  Ki: < 2.5 nM
Activated protein C
  Ki: > 2500 nM
Factor Xa
  Ki: 0.05 to 0.2 nM
Factor XIa
  Ki: 2.5 to 25 nM
[4]
  inhibition of factor VIIa-tissue factor complex: not inhibited
Human plasma kallikrein
  Ki: 1.4 nM
urokinase
  Ki: > 2500 nM
[5]
  inhibition of the eight soluble E. coli endoproteases: does not inhibit
[6]
  inhibition of Staphylococcus aureus V8 protease: does not inhibit
thermolysin
  inhibition of thermolysin: does not inhibit
subtilisin
  inhibition of subtilisin: does not inhibit
kallikrein
  inhibition of kallikrein: does not inhibit
Human pulmonary tryptase
  inhibition of human pulmonary tryptase: does not inhibit
pepsin
  inhibition of pepsin: does not inhibit
[7]
  Time to Occlusion: 20.1 ± 0.9 min
[7]; 60 minute observation
  Incidence of Occlusion: 2/6
[7]; p<0.01 vs Control
  Clot Formation (%): 12.73 ± 8.04%
